According to patent US20060069132A1, “Azolecarboxamide herbicides” (priority 2004, published 2006):

How the values were obtained:
barnyardgrass [1] = experiment: Test B pre-/postemergence herbicide test; assay type: in vivo, Echinochloa crus-galli; conditions: for Plant response rating, Barnyardgrass: preemergence; for Barnyardgrass plant response rating: postemergence, visual rating, scale 0 (no effect) to 100 (complete control)
Summary of the method: (§1)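 Visual rating, 0 (no effect) to 100 (complete control), versus untreated controls after 13–15 d in greenhouse. Pre- and postemergence applications (postemergence plants 2–18 cm, 1–4 leaves); flooded paddy arm at 2-leaf stage. Compounds in non-phytotoxic solvent plus surfactant.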

Surinam grass = experiment: Test B pre-/postemergence herbicide test; assay type: in vivo, Urochloa decumbens; conditions: for Plant response rating, Surinam Grass: preemergence; for Surinam Grass plant response rating: postemergence, visual rating, scale 0 (no effect) to 100 (complete control)
Summary of the method: (§2)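 Test chemicals in a non-phytotoxic solvent mixture with surfactant were applied preemergence to seeded species and postemergence to plants 2-18 cm tall (1- to 4-leaf stage); rice and barnyardgrass were also tested in a flooded paddy at the 2-leaf stage. Visual rating versus controls after 13-15 days in greenhouse, scale 0 (no effect) to 100 (complete control).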

cocklebur = experiment: Test B pre-/postemergence herbicide test; assay type: in vivo, Xanthium strumarium; conditions: for Plant response rating, Cocklebur: preemergence; for Cocklebur plant response rating: postemergence, visual rating, scale 0 (no effect) to 100 (complete control)
Summary of the method: as §1

corn = experiment: Test B pre-/postemergence herbicide test; assay type: in vivo, Zea mays; conditions: for Plant response rating, Corn: preemergence; for Corn plant response rating: postemergence, visual rating, scale 0 (no effect) to 100 (complete control)
Summary of the method: as §2

large crabgrass = experiment: Test B pre-/postemergence herbicide test; assay type: in vivo, Digitaria sanguinalis; conditions: for Plant response rating, Crabgrass, Large: preemergence; for Crabgrass, Large plant response rating: postemergence, visual rating, scale 0 (no effect) to 100 (complete control)
Summary of the method: as §2

giant foxtail = experiment: Test B pre-/postemergence herbicide test; assay type: in vivo, Setaria faberi; conditions: for Plant response rating, Foxtail, Giant: preemergence; for Foxtail, Giant plant response rating: postemergence, visual rating, scale 0 (no effect) to 100 (complete control)
Summary of the method: as §2

lambsquarters = experiment: Test B pre-/postemergence herbicide test; assay type: in vivo, Chenopodium album; conditions: for Plant response rating, Lambsquarters: preemergence; for Lambsquarters plant response rating: postemergence, visual rating, scale 0 (no effect) to 100 (complete control)
Summary of the method: as §2

morningglory = experiment: Test B pre-/postemergence herbicide test; assay type: in vivo, Ipomoea coccinea; conditions: for Plant response rating, Morningglory: preemergence; for Morningglory plant response rating: postemergence, visual rating, scale 0 (no effect) to 100 (complete control)
Summary of the method: as §1

pigweed = experiment: Test B pre-/postemergence herbicide test; assay type: in vivo, Amaranthus retroflexus; conditions: for Plant response rating, Pigweed: preemergence; for Pigweed plant response rating: postemergence, visual rating, scale 0 (no effect) to 100 (complete control)
Summary of the method: as §2

rice [2] = experiment: Test B pre-/postemergence herbicide test; assay type: in vivo, Oryza sativa; conditions: 500 g ai/ha; visual rating 0-100, 0 no effect, 100 complete control; preemergence
Summary of the method: as §2

velvetleaf = experiment: Test B pre-/postemergence herbicide test; assay type: in vivo, Abutilon theophrasti; conditions: for Plant response rating, Velvetleaf: preemergence; for Velvetleaf plant response rating: postemergence, visual rating, scale 0 (no effect) to 100 (complete control)
Summary of the method: as §2

rice [3] = experiment: Test B flooded paddy test; assay type: in vivo, Oryza sativa; conditions: 1000 g ai/ha, visual rating, scale 0 to 100 (0 no effect, 100 complete control), 13 to 15 days
Summary of the method: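 Paddy species grown to the 2-leaf stage under flooding; blackgrass sprayed postemergence at 2–18 cm (1- to 4-leaf stage). Plants kept in a greenhouse for 13 to 15 days, then visually rated against controls on 0 (no effect) to 100 (complete control).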

[4] = system: small flower umbrella sedge; experiment: Test B flooded paddy test; assay type: in vivo, Cyperus difformis; conditions: 1000 g ai/ha, visual rating, scale 0 to 100 (0 no effect, 100 complete control), 13 to 15 days
Summary of the method: (§3)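 Visual ratings, 0 (no effect) to 100 (complete control), made versus controls after 13–15 d greenhouse. Paddy plants treated at 2-leaf stage; postemergence plants at 1- to 4-leaf stage, 2–18 cm tall.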

ducksalad [5] = experiment: Test B flooded paddy test; assay type: in vivo, Heteranthera limosa; conditions: 1000 g ai/ha, visual rating, scale 0 to 100 (0 no effect, 100 complete control), 13 to 15 days
Summary of the method: as §3

barnyardgrass [6] = experiment: Test B flooded paddy test; assay type: in vivo, Echinochloa crus-galli; conditions: 1000 g ai/ha, visual rating, scale 0 to 100 (0 no effect, 100 complete control), 13 to 15 days
Summary of the method: as §3

rice [7] = experiment: Test C flooded paddy test; assay type: in vivo, Oryza sativa
Summary of the method: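 Postemergence sprays applied to plants 2 to 18 cm tall (1- to 4-leaf stage); paddy species grown to 2-leaf stage under flooding. After 12 to 14 days in greenhouse, visual rating versus untreated controls on 0–100 scale (0 no effect, 100 complete control).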

[8] = system: smallflower umbrella sedge; experiment: Test C flooded paddy test; assay type: in vivo, Cyperus difformis
ducksalad [9] = experiment: Test C flooded paddy test; assay type: in vivo, Heteranthera limosa
barnyardgrass [10] = experiment: Test C flooded paddy test; assay type: in vivo, Echinochloa crus-galli
Summary of the method: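 Injury scored visually against controls on a 0 (no effect) to 100 (complete control) scale, 12 to 14 days after treatment in greenhouse. Flooded paddy plants treated at 2-leaf stage; postemergence plants at 1- to 4-leaf stage, 2 to 18 cm tall.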

[11] = 500 g ai/ha, visual rating 0-100, 0 no effect, 100 complete control
[12] = 125 g ai/ha, 0 to 100 scale, 0 is no effect, 100 is complete control
[13] = 62 g ai/ha, scale 0 to 100 (0 no effect, 100 complete control)
[14] = 125 g ai/ha, scale 0 to 100 (0 no effect, 100 complete control)
[15] = 250 g ai/ha, scale of 0 to 100, 0 is no effect, 100 is complete control
[16] = 500 g ai/ha, visual rating after 12 to 14 days, scale 0 to 100 (0 no effect, 100 complete control)

C=CCN(C)C(=O)c1ccnc(NC(=O)c2cc(C(C)(C)C)nn2CC)c1 [Compound 159]
40: Plant response rating, Crabgrass, Large (large crabgrass; [12]) | Foxtail, Giant plant response rating (giant foxtail; 125 g ai/ha) | Plant response rating, Morningglory (morningglory; [11]) | Sedge, Umbrella plant response rating [8, 14]
10: Morningglory plant response rating (morningglory; 125 g ai/ha) | Morningglory plant response rating (morningglory; 500 g ai/ha) | Sedge, Umbrella plant response rating [8, 13]
70: Plant response rating, Barnyardgrass (barnyardgrass [1]; [12]) | Plant response rating, Surinam Grass (Surinam grass; [11]) | Plant response rating, Crabgrass, Large (large crabgrass; [11]) | Plant response rating, Rice (rice [2]) | Velvetleaf plant response rating (velvetleaf; 500 g ai/ha) | Sedge, Umbrella plant response rating [4] | Barnyardgrass plant response rating (barnyardgrass [10]; [15])
50: Foxtail, Giant plant response rating (giant foxtail; 500 g ai/ha) | Plant response rating, Foxtail, Giant (giant foxtail; [12]) | Barnyardgrass plant response rating (barnyardgrass [10]; 125 g ai/ha, scale of 0 to 100, 0 is no effect, 100 is complete control)
100: Plant response rating, Cocklebur (cocklebur; [11]) | Plant response rating, Lambsquarters (lambsquarters; [11]) | Plant response rating, Lambsquarters (lambsquarters; [12]) | Plant response rating, Pigweed (pigweed; [11]) | Plant response rating, Pigweed (pigweed; [12]) | Plant response rating, Ducksalad (ducksalad [9]; [16])
30: Plant response rating, Morningglory (morningglory; [12]) | Barnyardgrass plant response rating (barnyardgrass [10]; [13])
60: Plant response rating, Surinam Grass (Surinam grass; [12]) | Plant response rating, Foxtail, Giant (giant foxtail; [11]) | Rice plant response rating (rice [3]) | Rice plant response rating (rice [7]; [13]) | Rice plant response rating (rice [7]; [14]) | Sedge, Umbrella plant response rating [8, 15]
20: Surinam Grass plant response rating (Surinam grass; 500 g ai/ha) | Velvetleaf plant response rating (velvetleaf; 125 g ai/ha)
90: Plant response rating, Barnyardgrass (barnyardgrass [1]; [11]) | Plant response rating, Cocklebur (cocklebur; [12]) | Lambsquarters plant response rating (lambsquarters; 125 g ai/ha) | Lambsquarters plant response rating (lambsquarters; 500 g ai/ha) | Plant response rating, Velvetleaf (velvetleaf; [11]) | Ducksalad plant response rating (ducksalad [5]) | Plant response rating, Rice (rice [7]; [16]) | Ducksalad plant response rating (ducksalad [9]; [14]) | Ducksalad plant response rating (ducksalad [9]; [15])
0: Barnyardgrass plant response rating (barnyardgrass [1]; 125 g ai/ha) | Barnyardgrass plant response rating (barnyardgrass [1]; 500 g ai/ha) | Surinam Grass plant response rating (Surinam grass; 125 g ai/ha) | Plant response rating, Corn (corn; [11]) | Corn plant response rating (corn; 125 g ai/ha) | Corn plant response rating (corn; 500 g ai/ha) | Plant response rating, Corn (corn; [12]) | Crabgrass, Large plant response rating (large crabgrass; 125 g ai/ha) | Crabgrass, Large plant response rating (large crabgrass; 500 g ai/ha)
80: Cocklebur plant response rating (cocklebur; 125 g ai/ha) | Cocklebur plant response rating (cocklebur; 500 g ai/ha) | Pigweed plant response rating (pigweed; 125 g ai/ha) | Pigweed plant response rating (pigweed; 500 g ai/ha) | Plant response rating, Velvetleaf (velvetleaf; [12]) | Barnyardgrass plant response rating (barnyardgrass [6]) | Rice plant response rating (rice [7]; [15]) | Plant response rating, Sedge, Umbrella [8, 16] | Ducksalad plant response rating (ducksalad [9]; [13]) | Plant response rating, Barnyardgrass (barnyardgrass [10]; [16])
